Source: patent US20230017786A1, “DEXTR[…] A DISEASE-MODIFYING TREATMENT FOR NEUROPSYCHIATRIC DISORDERS AND DISEASES” (priority 2020, published 2023)
Counter-ions that a name gives are not always drawn.

Legend:
[1] = molecular target: T1, human NMDA receptor GluN1-GluN2B (Homo sapiens, UniProt Q05586+Q13224); assay: cell-based; type: cell-based
T1 construct: expressed in transfected cells; host or cells: CHO
Protocol: (§1) FLIPR determination of intracellular calcium level was used as a read-out for NMDAR activation.
(§2) 400× compound plate was stored at −20° C. until FLIPR experimental day.
(§3) 4× compound plate was generated from 400× compound plate by addition of up to 30 μl/well of compound buffer on FLIPR experimental day.
(§4) A FLIPR system was used to monitor intracellular calcium level in NMDAR cell lines, pre-loaded for 1 hour with Fluo-4, and then washed with assay buffer.
(§5) Y=Bottom+(Top−Bottom)/(1+10^((LogEC50−Log[A])*HillSlope))

[2] = molecular target: T2, human NMDA receptor GluN1-GluN2D (Homo sapiens, UniProt O15399+Q05586); assay: FLIPR calcium assay, test item effect on L-glutamate CRC, GluN1-GluN2D-CHO; type: cell-based
T2 construct: expressed in transfected cells; host or cells: CHO
T2 sequence (O15399 28-1336, other chains not shown): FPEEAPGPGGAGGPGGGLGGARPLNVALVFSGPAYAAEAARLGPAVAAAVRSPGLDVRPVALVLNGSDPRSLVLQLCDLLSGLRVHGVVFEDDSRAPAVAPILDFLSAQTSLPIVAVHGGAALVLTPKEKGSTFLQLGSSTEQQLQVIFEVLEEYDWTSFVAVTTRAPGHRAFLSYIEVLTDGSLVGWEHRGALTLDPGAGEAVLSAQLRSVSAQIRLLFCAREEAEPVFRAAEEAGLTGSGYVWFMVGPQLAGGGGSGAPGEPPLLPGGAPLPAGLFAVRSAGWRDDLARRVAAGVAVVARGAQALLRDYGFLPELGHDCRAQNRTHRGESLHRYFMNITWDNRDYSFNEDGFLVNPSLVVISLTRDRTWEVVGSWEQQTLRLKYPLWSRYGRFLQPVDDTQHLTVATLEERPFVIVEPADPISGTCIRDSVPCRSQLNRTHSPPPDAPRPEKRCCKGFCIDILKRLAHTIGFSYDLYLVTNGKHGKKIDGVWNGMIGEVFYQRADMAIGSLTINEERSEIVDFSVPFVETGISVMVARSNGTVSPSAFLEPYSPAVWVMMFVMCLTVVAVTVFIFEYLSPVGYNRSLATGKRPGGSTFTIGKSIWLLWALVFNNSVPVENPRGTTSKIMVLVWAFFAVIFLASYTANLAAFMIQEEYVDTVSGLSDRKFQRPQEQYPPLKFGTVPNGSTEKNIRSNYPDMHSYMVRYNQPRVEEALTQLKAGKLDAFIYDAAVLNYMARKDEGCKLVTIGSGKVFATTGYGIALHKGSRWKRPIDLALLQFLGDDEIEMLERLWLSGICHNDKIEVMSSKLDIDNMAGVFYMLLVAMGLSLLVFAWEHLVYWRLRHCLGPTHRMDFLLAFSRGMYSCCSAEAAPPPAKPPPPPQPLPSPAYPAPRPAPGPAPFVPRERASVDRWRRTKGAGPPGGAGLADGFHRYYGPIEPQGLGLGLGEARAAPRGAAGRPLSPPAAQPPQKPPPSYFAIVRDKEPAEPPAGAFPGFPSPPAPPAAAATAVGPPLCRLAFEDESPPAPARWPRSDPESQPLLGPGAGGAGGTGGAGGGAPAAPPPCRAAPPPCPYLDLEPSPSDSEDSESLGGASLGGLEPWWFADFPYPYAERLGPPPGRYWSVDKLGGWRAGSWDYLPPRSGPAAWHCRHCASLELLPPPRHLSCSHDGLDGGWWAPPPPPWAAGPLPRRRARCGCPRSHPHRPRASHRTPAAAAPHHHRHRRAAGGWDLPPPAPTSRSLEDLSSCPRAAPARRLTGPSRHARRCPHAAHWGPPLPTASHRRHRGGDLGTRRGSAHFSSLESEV
Protocol: as §1, §2, §3, §4, §5

[3] = molecular target: T3, human NMDA receptor GluN1-GluN2C (Homo sapiens, UniProt Q05586+Q14957); assay: FLIPR calcium assay, test item effect on L-glutamate CRC, GluN1-GluN2C-CHO; type: cell-based
T3 construct: expressed in transfected cells; host or cells: CHO
T3 sequence (Q14957 20-1233, other chains not shown): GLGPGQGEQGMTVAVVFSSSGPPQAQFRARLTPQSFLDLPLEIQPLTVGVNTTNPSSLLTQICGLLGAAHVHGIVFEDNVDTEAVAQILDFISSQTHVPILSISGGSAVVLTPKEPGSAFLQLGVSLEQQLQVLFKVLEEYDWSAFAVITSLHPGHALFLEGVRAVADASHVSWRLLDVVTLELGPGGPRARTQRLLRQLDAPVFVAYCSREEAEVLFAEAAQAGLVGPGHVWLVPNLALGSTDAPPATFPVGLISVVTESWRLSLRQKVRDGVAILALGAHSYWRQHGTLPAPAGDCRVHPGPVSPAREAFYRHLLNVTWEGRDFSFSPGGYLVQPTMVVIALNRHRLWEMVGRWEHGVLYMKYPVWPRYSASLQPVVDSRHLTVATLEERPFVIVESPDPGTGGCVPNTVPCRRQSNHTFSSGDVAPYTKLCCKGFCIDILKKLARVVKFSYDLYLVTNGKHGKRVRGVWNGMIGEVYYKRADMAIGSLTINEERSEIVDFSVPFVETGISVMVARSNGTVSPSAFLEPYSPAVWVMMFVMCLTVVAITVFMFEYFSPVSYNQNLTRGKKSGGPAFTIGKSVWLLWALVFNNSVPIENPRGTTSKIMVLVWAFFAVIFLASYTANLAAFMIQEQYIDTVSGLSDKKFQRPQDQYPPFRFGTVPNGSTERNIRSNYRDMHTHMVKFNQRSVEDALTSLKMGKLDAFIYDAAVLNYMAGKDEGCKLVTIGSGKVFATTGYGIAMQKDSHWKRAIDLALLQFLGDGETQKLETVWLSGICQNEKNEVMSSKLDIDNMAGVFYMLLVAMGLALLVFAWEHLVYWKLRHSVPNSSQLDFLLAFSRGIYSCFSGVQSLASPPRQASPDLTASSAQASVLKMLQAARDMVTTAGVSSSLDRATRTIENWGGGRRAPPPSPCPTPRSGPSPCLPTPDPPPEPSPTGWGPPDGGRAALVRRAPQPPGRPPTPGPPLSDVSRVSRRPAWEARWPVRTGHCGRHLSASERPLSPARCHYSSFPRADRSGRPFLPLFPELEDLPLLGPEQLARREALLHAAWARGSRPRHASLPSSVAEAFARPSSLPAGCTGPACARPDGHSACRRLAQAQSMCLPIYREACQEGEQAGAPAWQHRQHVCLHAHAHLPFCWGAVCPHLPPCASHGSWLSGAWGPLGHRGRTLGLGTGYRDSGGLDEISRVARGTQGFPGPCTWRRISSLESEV
Protocol: as §1, §2, §3, §4, §5

[4] = molecular target: T4, human NMDA receptor GluN1-GluN2A (Homo sapiens, UniProt Q05586+Q12879); assay: FLIPR calcium assay, test item effect on L-glutamate CRC, GluN1-GluN2A-CHO; type: cell-based
T4 construct: expressed in transfected cells; host or cells: CHO
Protocol: as §1, §2, §3, §4, §5

[5] = tested on: rat brain; settings: 75 mg/kg; Hashimoto et al., 1996; cited from earlier work
[6] = tested on: diheteromeric human recombinant NMDAR containing GluN1 plus GluN2A, GluN2B, GluN2C or GluN2D; assay: FLIPR calcium assay, statements for all four NMDAR subtypes together; type: cell-based; settings: 6 test item concentrations
Source text: An operational equation for allosteric modulators (Leach K, Sexton P M and Christopoulos A, Allosteric GPCR modulators: taking advantage of permissive receptor pharmacology, Trends Pharmacol. Sci. 28: 382-389, 2007; Kenakin T P, Overview of receptor interaction of agonists and antagonists, Curr. Protoc. Pharmacol. Chapter 4: Unit 4.1, 2008, Kenakin T P, Biased signalling and allosteric machines: new vistas and challenges for drug discovery, Br. J. Pharmacol. 165: 1659-1669, 2012) was created in Prism 8 (GraphPad) software to estimate KB and a parameters for every test item, with the assumption that, as a pore blocker, every test item would be able to produce a compete blockade of agonist response, at sufficiently high concentration: […]

[7] = highest affinity for a NMDAR subtype = 100%
[8] = operational analysis for allosteric modulators
[9] = operational analysis for allosteric modulators, read-out: KB (M), estimated test item equilibrium dissociation constant

T1 sequence (Q13224 27-1484, other chains not shown): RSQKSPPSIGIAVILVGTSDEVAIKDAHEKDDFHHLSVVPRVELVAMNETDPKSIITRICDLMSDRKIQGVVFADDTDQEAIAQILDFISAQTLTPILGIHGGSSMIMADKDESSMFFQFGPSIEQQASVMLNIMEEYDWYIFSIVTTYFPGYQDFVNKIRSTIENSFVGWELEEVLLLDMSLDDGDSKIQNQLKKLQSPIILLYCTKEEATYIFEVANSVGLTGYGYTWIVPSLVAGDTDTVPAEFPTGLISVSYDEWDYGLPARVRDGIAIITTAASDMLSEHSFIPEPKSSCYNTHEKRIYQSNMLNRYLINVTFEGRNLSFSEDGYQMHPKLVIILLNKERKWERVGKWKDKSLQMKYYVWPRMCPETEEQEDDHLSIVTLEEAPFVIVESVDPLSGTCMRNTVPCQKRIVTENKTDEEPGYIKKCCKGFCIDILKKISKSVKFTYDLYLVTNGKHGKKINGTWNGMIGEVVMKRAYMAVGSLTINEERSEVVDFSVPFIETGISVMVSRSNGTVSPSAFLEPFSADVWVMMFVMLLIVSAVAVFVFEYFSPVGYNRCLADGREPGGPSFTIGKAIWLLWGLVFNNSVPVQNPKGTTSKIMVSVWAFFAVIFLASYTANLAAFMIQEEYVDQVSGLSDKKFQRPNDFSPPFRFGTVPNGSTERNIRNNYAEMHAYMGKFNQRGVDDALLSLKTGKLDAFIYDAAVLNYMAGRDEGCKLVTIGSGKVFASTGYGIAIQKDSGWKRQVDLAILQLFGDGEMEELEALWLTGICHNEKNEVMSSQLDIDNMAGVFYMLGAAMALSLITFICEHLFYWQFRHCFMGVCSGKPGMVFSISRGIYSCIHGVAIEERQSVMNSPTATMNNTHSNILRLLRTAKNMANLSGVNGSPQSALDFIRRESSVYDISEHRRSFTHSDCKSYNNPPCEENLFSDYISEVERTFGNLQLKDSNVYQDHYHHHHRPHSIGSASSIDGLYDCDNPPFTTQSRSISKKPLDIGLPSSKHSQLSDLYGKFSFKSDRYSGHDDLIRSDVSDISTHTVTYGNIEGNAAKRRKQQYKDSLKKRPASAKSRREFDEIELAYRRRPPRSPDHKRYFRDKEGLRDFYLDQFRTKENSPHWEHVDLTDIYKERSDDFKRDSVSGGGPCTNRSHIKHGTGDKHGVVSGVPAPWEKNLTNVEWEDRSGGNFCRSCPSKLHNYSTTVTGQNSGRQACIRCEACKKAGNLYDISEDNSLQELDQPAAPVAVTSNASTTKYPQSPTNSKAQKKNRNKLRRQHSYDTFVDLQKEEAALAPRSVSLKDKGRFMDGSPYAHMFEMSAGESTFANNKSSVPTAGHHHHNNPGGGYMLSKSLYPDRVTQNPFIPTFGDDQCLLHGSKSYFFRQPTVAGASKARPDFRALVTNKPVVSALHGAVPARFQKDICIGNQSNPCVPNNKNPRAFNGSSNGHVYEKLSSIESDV

SMILES: COc1ccc2c(c1)[C@]13CCCC[C@@H]1[C@H](C2)N(C)CC3 [Dextromethorphan, dextromethorphan hydrobromide monohydrate]
- % affinity ratio [1, 7]: 63%
- α, estimated cooperativity term [1, 8]: 0.13
- Kb [1, 9]: 1.9e-06 M
- L-glutamate CRC HillSlope ([1]; with test item 49 nM): 1.2
- L-glutamate CRC LogEC50 ([1]; with test item 49 nM): −6.7
- L-glutamate CRC HillSlope ([1]; with test item 195 nM): 1.1
- L-glutamate CRC LogEC50 ([1]; with test item 195 nM): −6.7
- L-glutamate CRC HillSlope ([1]; with test item 781 nM): 1.3
- L-glutamate CRC LogEC50 ([1]; with test item 781 nM): −6.6
- L-glutamate CRC HillSlope ([1]; with test item 3.1 μM): 1.3
- L-glutamate CRC LogEC50 ([1]; with test item 3.1 μM): −6.7
- L-glutamate CRC HillSlope ([1]; with test item 12.5 μM): 1.2
- L-glutamate CRC LogEC50 ([1]; with test item 12.5 μM): −6.7
- L-glutamate CRC HillSlope ([1]; with test item 50 μM): 0.83
- L-glutamate CRC LogEC50 ([1]; with test item 50 μM): −6.2
- Kb ([2]; KB Table, absence of extracellular Mg2+, read-out: KB): 6.7 µM
- % affinity ratio [2, 7]: 18%
- α, estimated cooperativity term [2, 8]: 0.34
- L-glutamate CRC HillSlope ([2]; with test item 49 nM): 1.7
- L-glutamate CRC LogEC50 ([2]; with test item 49 nM): −7.5
- L-glutamate CRC HillSlope ([2]; with test item 195 nM): 1.4
- L-glutamate CRC LogEC50 ([2]; with test item 195 nM): −7.5
- L-glutamate CRC HillSlope ([2]; with test item 781 nM): 1.7
- L-glutamate CRC LogEC50 ([2]; with test item 781 nM): −7.4
- L-glutamate CRC HillSlope ([2]; with test item 3.1 μM): 1.9
- L-glutamate CRC LogEC50 ([2]; with test item 3.1 μM): −7.3
- L-glutamate CRC HillSlope ([2]; with test item 12.5 μM): 1.7
- L-glutamate CRC LogEC50 ([2]; with test item 12.5 μM): −7.1
- L-glutamate CRC HillSlope ([2]; with test item 50 μM): 1.9
- L-glutamate CRC LogEC50 ([2]; with test item 50 μM): −6.8
- % affinity ratio [3, 7]: 100%
- α, estimated cooperativity term [3, 8]: 0.24
- Kb [3, 9]: 1.2e-06 M
- L-glutamate CRC HillSlope ([3]; with test item 49 nM): 1.3
- L-glutamate CRC LogEC50 ([3]; with test item 49 nM): −7.0
- L-glutamate CRC HillSlope ([3]; with test item 195 nM): 1.4
- L-glutamate CRC LogEC50 ([3]; with test item 195 nM): −6.8
- L-glutamate CRC HillSlope ([3]; with test item 781 nM): 1.6
- L-glutamate CRC LogEC50 ([3]; with test item 781 nM): −6.8
- L-glutamate CRC HillSlope ([3]; with test item 3.1 μM): 1.6
- L-glutamate CRC LogEC50 ([3]; with test item 3.1 μM): −6.7
- L-glutamate CRC HillSlope ([3]; with test item 12.5 μM): 1.5
- L-glutamate CRC LogEC50 ([3]; with test item 12.5 μM): −6.7
- L-glutamate CRC HillSlope ([3]; with test item 50 μM): 3.0
- L-glutamate CRC LogEC50 ([3]; with test item 50 μM): −6.8
- % affinity ratio [4, 7]: 13%
- α, estimated cooperativity term [4, 8]: 0.25
- Kb [4, 9]: 9.6e-06 M
- L-glutamate CRC HillSlope ([4]; with test item 49 nM): 1.0
- L-glutamate CRC LogEC50 ([4]; with test item 49 nM): −6.6
- L-glutamate CRC HillSlope ([4]; with test item 195 nM): 1.2
- L-glutamate CRC LogEC50 ([4]; with test item 195 nM): −6.6
- L-glutamate CRC HillSlope ([4]; with test item 781 nM): 1.3
- L-glutamate CRC LogEC50 ([4]; with test item 781 nM): −6.4
- L-glutamate CRC HillSlope ([4]; with test item 3.1 μM): 1.3
- L-glutamate CRC LogEC50 ([4]; with test item 3.1 μM): −6.5
- L-glutamate CRC HillSlope ([4]; with test item 12.5 μM): 1.1
- L-glutamate CRC LogEC50 ([4]; with test item 12.5 μM): −6.4
- L-glutamate CRC HillSlope ([4]; with test item 50 μM): 1.3
- L-glutamate CRC LogEC50 ([4]; with test item 50 μM): −6.2
- vacuolization in rats' brains [5]: cause vacuolization
- profile on L-glutamate CRC [6]: insurmountable profile
